Test results taken from patent US20220340650A1, “COMBINATION THERAPY WITH CGRP ANTAGONISTS” (Allergan Pharmaceuticals International Limited, priority 2019, published 2022).
Entries after “also recorded” stand apart in the source; their conditions may differ. Each block holds one molecule with its values, some of them ahead of it.

How the values were obtained:
[1] = Phase 1b trial NCT04179474, plasma ubrogepant pharmacokinetics, erenumab arm (Part 1); format: in vivo, human; conditions: for half-life: read-out: t1/2, mean (converted)
Method: (§1) A two-part, multi-center, open-label, phase 1b trial (NCT04179474) in 40 adults (aged 18-50 years) diagnosed with migraine was conducted to evaluate the impact of erenumab or galcanezumab on the pharmacokinetics (PK), safety, and tolerability of ubrogepant in patients with migraine.
(§2) This open-label, multicenter trial enrolled adults diagnosed for greater than or equal to one year with migraine not on preventive treatment. Participants were assigned to an erenumab arm (Part 1) or a galcanezumab arm (Part 2). In each arm, participants received ubrogepant 100 mg on day 1 (without an antibody). On day 8, participants received the assigned monoclonal antibody: single subcutaneous (SC) erenumab 140 mg injection (Part 1) or galcanezumab 240 mg (2 SC 120 mg injections) (Part 2). Ubrogepant 100 mg was administered once daily on days 12-15. Participants were followed for 30 days.
(§3) Of 40 enrolled participants, 20 were included in part 1 (n=20 ubrogepant, n=19 erenumab, and n=19 co-administered ubrogepant and erenumab) and 20 were included in part 2 (n=20 ubrogepant, n=20 galcanezumab, and n=19 co-administered ubrogepant and galcanezumab).
(§4) PK parameters, derived from plasma ubrogepant concentrations in blood collected at prespecified time points over 24 hours post-dose on days 1 and 12, included area under the curve from time 0 to time t (AUC0-t) or to infinity (AUC0-∞); peak plasma concentration (Cmax), time to Cmax (Tmax); and apparent terminal half life (t1/2). Safety outcomes included incidence of adverse events (AEs; daily and through follow-up), and laboratory values, vital signs, and electrocardiogram (ECG) results (at prespecified timepoints pre- and post-dose). Log-transformed Cmax, AUC0-t, and […] , for ubrogepant with and without erenumab or galcanezumab with 90% CI were constructed.

[2] = Phase 1b trial NCT04179474, plasma ubrogepant pharmacokinetics, galcanezumab arm (Part 2); format: in vivo, human; conditions: for AUC(0-t): 100 mg
Method: as §1, §2
Of 40 enrolled participants, 20 were included in part 1 (n=20 ubrogepant, n=19 erenumab, and n=19 co-administered ubrogepant and erenumab) and 20 were included in part 2 (n=20 ubrogepant, n=20 galcanezumab, […]).
as §4

[3] = Phase 1b trial NCT04179474, safety and tolerability (adverse events), erenumab arm (Part 1); design: species or system human; conditions: in vivo
Method: as §1, §2, §3, §4

[4] = Phase 1b trial NCT04179474, safety and tolerability (adverse events), galcanezumab arm (Part 2); design: species or system human; conditions: in vivo
Method: as §1, §2, §3, §4

CYP enzymes = conditions: general statement, no test described; cited from earlier work
[5] = erenumab arm, ubrogepant 100 mg alone, day 1, n = 20
[6] = galcanezumab arm, ubrogepant 100 mg alone, day 1, n = 20

CL/F, mean [1, 5]: 57.4 L/h
t1/2, mean [1, 5]: 4.6 h
AUC(0-t) ([1]; human, plasma, oral, erenumab arm, ubrogepant 100 mg alone, day 1, read-out: AUC0-t, geometric LSM): 1780 ng·h/mL
AUC(0-inf) ([1]; human, plasma, oral, erenumab arm, ubrogepant 100 mg alone, day 1, read-out: AUC0-∞, geometric LSM): 1810 ng·h/mL
Cmax ([1]; human, plasma, oral, erenumab arm, ubrogepant 100 mg alone, day 1, read-out: Cmax, geometric LSM): 431 ng/mL
AUC(0-t) ([1]; human, plasma, other: extravascular administration, erenumab arm, ubrogepant 100 mg alone, day 1, n = 20, read-out: AUC0-t, mean): 1840 ng·h/mL
AUC(0-inf) ([1]; human, plasma, other: extravascular administration, erenumab arm, ubrogepant 100 mg alone, day 1, n = 20, read-out: AUC0-∞, mean): 1880 ng·h/mL
Cmax ([1]; human, plasma, other: extravascular administration, erenumab arm, ubrogepant 100 mg alone, day 1, n = 20, read-out: Cmax, mean): 459 ng/mL
Vd/F ([1]; human, plasma, other: extravascular administration, erenumab arm, ubrogepant 100 mg alone, day 1, n = 20, read-out: VZ/F, mean): 437 L
half-life ([1]; human, plasma, other: extravascular administration, erenumab arm, ubrogepant 100 mg alone, day 1, n = 20): 5.3 h
half-life ([1]; human, plasma, erenumab arm, ubrogepant 100 mg day 12, after SC erenumab 140 mg on day 8, n = 19): 5.3 h
Tmax ([1]; human, plasma, erenumab arm, ubrogepant 100 mg day 12, after SC erenumab 140 mg on day 8, n = 19, read-out: tmax, median): 1.5 h
AUC0-∞, mean [2, 6]: 1732.2 ng·h/mL
CL/F, mean [2, 6]: 72.9 L/h
Cmax, mean [2, 6]: 415.3 ng/mL
t1/2, mean [2, 6]: 4.6 h
AUC(0-t) ([2]; human, plasma, oral, galcanezumab arm, ubrogepant 100 mg alone, day 1, n = 20, read-out: AUC0-t, mean): 1700 ng·h/mL
AUC(0-t) ([2]; human, plasma, oral, galcanezumab arm, ubrogepant 100 mg alone, day 1, read-out: AUC0-t, geometric LSM): 1510 ng·h/mL
Vd/F ([2]; human, plasma, oral, galcanezumab arm, ubrogepant 100 mg alone, day 1, n = 20, read-out: VZ/F, mean): 569 L
AUC(0-inf) ([2]; human, plasma, oral, galcanezumab arm, ubrogepant 100 mg alone, day 1, read-out: AUC0-∞, geometric LSM): 1540 ng·h/mL
Cmax ([2]; human, plasma, oral, galcanezumab arm, ubrogepant 100 mg alone, day 1, read-out: Cmax, geometric LSM): 359 ng/mL
Tmax ([2]; human, plasma, oral, galcanezumab arm, ubrogepant 100 mg day 12, after SC galcanezumab 240 mg on day 8, n = 20): 1.5 h
half-life ([2]; human, plasma, oral, galcanezumab arm, ubrogepant 100 mg day 12, after SC galcanezumab 240 mg on day 8, n = 20, read-out: t1/2, mean (converted)): 5 h
change in ubrogepant Cmax with galcanezumab coadministration ([2]; vs ubrogepant alone): unchanged
increase in ubrogepant AUC0-t with galcanezumab coadministration ([2]; vs ubrogepant alone): 5%
increase in ubrogepant AUC0-∞ with galcanezumab coadministration ([2]; vs ubrogepant alone): 5%
Molecule: C[C@@H]1[C@H](c2ccccc2)C[C@H](NC(=O)c2cnc3c(c2)C[C@@]2(C3)C(=O)Nc3ncccc32)C(=O)N1CC(F)(F)F [Ubrogepant, ubrogepant]
change in ubrogepant PK (Cmax, AUC0-t, AUC0-∞) after coadministration with erenumab versus alone ([1]; ubrogepant 100 mg, erenumab 140 mg SC): no significant change; also recorded: minimally elevated; also recorded: unchanged
change in ubrogepant PK (Cmax, AUC0-t, AUC0-28) after coadministration with galcanezumab versus alone ([2]; ubrogepant 100 mg, galcanezumab 240 mg SC): no significant change; also recorded: unchanged
Abdominal Pain, participants ([3]; human): 0 participants
Constipation, participants ([3]; human): 0 participants
Flatulence, participants ([3]; human): 0 participants
Headache, participants ([3]; human): 1 participants
Headache, participants (%) ([3]; human): (5.0) %
Nasopharyngitis, participants ([3]; human): 1 participants
Nasopharyngitis, participants (%) ([3]; human): (5.0) %
Nausea, participants ([3]; human): 0 participants
Somnolence, participants ([3]; human): 1 participants
Somnolence, participants (%) ([3]; human): (5.0) %
TEAEs, participants (%) ([3]; human): (35.0) %
Treatment Related AEs, participants (%) ([3]; human): (10.0) %
Upper Abdominal Pain, participants ([3]; human): 0 participants
safety concerns on co-administration [3]: no safety concerns were identified
Abdominal Discomfort, participants ([4]; human): 0 participants
Dizziness, participants ([4]; human): 0 participants
Headache, participants ([4]; human): 0 participants
Hiccups, participants ([4]; human): 0 participants
TEAEs, participants (%) ([4]; human): (10.0) %
Upper Abdominal Pain, participants ([4]; human): 0 participants
safety concerns on co-administration [4]: no safety concerns were identified

B1: erenumab (antibody, chains of the INN, looked up, V domains shown)
VH: QVQLVESGGGVVQPGRSLRLSCAASGFTFSSFGMHWVRQAPGKGLEWVAVISFDGSIKYSVDSVKGRFTISRDNSKNTLFLQMNSLRAEDTAVYYCARDRLNYYDSSGYYHYKYYGMAVWGQGTTVTVSS
VL: QSVLTQPPSVSAAPGQKVTISCSGSSSNIGNNYVSWYQQLPGTAPKLLIYDNNKRPSGIPDRFSGSKSGTSTTLGITGLQTGDEADYYCGTWDSRLSAVVFGGGTKLTVL
Abdominal Pain, participants [3]: 0 participants
Constipation, participants [3]: 0 participants
Flatulence, participants [3]: 1 participants
Flatulence, participants (%) [3]: (5.3) %
Headache, participants [3]: 6 participants
Headache, participants (%) [3]: (31.6) %
Nasopharyngitis, participants [3]: 0 participants
Nausea, participants [3]: 0 participants
Somnolence, participants [3]: 0 participants
TEAEs, participants (%) [3]: (42.1) %
Treatment Related AEs, participants (%) [3]: (36.8) %
Upper Abdominal Pain, participants [3]: 0 participants
metabolism by CYP enzymes (CYP enzymes): not metabolized by CYP enzymes

B2: galcanezumab (antibody, chains of the INN, looked up, V domains shown)
VH: QVQLVQSGAEVKKPGSSVKVSCKASGYTFGNYWMQWVRQAPGQGLEWMGAIYEGTGKTVYIQKFADRVTITADKSTSTAYMELSSLRSEDTAVYYCARLSDYVSGFGYWGQGTTVTVSS
VL: DIQMTQSPSSLSASVGDRVTITCRASKDISKYLNWYQQKPGKAPKLLIYYTSGYHSGVPSRFSGSGSGTDFTLTISSLQPEDFATYYCQQGDALPPTFGGGTKVEIK
notes: long-acting CGRP antagonist antibody that targets the CGRP ligand
Abdominal Discomfort, participants [4]: 0 participants
Dizziness, participants [4]: 0 participants
Headache, participants [4]: 3 participants
Headache, participants (%) [4]: (15.0) %
Hiccups, participants [4]: 1 participants
Hiccups, participants (%) [4]: (5.0) %
TEAEs, participants (%) [4]: (15.0) %
Treatment-related AEs, participants (%) [4]: (15.0) %
Upper Abdominal Pain, participants [4]: 0 participants
metabolism by CYP enzymes (CYP enzymes): not metabolized by CYP enzymes
